Assay [1] has as its target T1, OAADC A0A0D6NFJ6_9PROT, SEQ ID NO: 166 (Acetobacter indonesiensis, UniProt A0A6N3T5V0).
T1 sequence (A0A6N3T5V0 with tags, fused parts or gaps): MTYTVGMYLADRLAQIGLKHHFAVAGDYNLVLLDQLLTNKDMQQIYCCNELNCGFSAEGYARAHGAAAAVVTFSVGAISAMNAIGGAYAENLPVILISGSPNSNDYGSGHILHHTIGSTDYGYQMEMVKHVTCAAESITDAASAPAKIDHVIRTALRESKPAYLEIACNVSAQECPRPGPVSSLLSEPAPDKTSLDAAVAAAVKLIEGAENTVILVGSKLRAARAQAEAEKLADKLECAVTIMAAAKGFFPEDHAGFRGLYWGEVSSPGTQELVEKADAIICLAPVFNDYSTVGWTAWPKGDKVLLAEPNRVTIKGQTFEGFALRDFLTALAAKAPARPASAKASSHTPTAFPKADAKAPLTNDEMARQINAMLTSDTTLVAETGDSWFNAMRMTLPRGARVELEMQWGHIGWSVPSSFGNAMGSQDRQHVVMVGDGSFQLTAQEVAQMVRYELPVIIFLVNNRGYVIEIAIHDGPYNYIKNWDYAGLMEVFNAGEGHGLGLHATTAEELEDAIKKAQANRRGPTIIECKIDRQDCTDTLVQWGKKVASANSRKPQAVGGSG
Description: OAADC kinetics of A0A0D6NFJ6_9PROT on oxaloacetate. The assay is classed as biochemical. The settings on record: pH 7.2, 21° C. The protocol:
All substrates were dissolved in MilliQ H2O and the pH was adjusted to 7.2 as necessary. Activity for oxaloacetate, pyruvate, and 2-ketoisovalerate was measured at a 1 mM substrate concentration. The assay was performed in a 96-well half-area plate. Each reaction contained reaction buffer (100 mM HEPES, 100 mM NaCl, 10% glycerol, pH 7.2), ADH (Sigma-Aldrich, A7011, 100 U/mL for pyruvate, 600 U/mL for oxaloacetate, and 600 U/mL for 2-ketoisovalerate), and a final concentration of 0.5 mM NADPH, 0.1 mM TPP, and 1 mM MgSO4. A range of substrate concentrations (0.1 mM-5 mM) were uSEQ to perform steady-state kinetics measurement over a period of one hour. Absorbance readings were taken at one minute intervals at 340 nm at 21° C. for 60 minutes using the Synergy H1 spectrophotometer (Biotek). Kinetic parameters (ka and Ks1) were determined by fitting initial velocity versus substrate concentration data to the Michaelis-Menten equation.
A second round of genome mining was conducted as described in Example 1, except using the 4COK sequence as the input. Genes encoding candidate OAADCs were synthesized and expressed in E. coli for further characterization. OAADC activity was assayed as described in Example 1.

For assay [2], the target named is T2, pyruvate decarboxylase from Gluconacetobacter diazotrophicus (4COK), SEQ ID NO: 1 (Gluconacetobacter diazotrophicus, UniProt A9H275).
T2 construct: likely strain PAl 5 (ATCC 49037 / DSM 5601)
T2 sequence (A9H275 1-558): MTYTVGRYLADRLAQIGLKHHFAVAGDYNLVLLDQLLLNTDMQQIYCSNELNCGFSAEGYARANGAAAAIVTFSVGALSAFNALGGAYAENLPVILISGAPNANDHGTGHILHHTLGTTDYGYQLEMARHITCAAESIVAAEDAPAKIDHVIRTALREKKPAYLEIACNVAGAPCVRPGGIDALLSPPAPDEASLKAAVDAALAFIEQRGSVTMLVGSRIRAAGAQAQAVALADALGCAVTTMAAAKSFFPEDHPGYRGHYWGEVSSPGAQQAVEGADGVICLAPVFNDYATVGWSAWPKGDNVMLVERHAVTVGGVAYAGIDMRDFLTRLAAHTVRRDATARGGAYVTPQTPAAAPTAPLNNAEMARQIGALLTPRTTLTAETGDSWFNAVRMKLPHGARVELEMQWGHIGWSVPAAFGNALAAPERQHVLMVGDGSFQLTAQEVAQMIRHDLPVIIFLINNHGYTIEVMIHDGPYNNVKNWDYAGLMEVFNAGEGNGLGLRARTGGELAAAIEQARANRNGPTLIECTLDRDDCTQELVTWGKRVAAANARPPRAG
The experiment in a line: Steady-state kinetics of 4COK decarboxylase on pyruvate and oxaloacetate (ADH/NADPH coupled, 340 nm). In kind it is biochemical. As to conditions: pH 7.2, 21° C., 0.1 mM-5 mM substrate. The protocol:
Overnight cultures of BLR cells suspended in a 2 mL volume were transformed with a pet29b+ plasmid (encoding polypeptides of interest with a C-terminal His-tag) and grown in Terrific Broth with 50 μg/ml kanamycin. Cultures were diluted 1:1.000 in 500 ml of Terrific Broth with 1 mM MgSO4, 1% glucose and 50 μg/ml antibiotic and then grown at 37° C. for 24 hours. Cultures were pelleted down at 4,700 RPM for 10 minutes and resuspended in auto-induction media (LB broth, 1 mM MgSO4, 0.1 mM TPP, 1×NPS and 1×5052) for induction at 18° C. for 20 hours. […] Protein concentrations were determined using a Synergy H1 spectrophotometer (Biotek) by measuring absorbance at 280 nm using calculated extinction coefficients.
All substrates were dissolved in MilliQ H2O and the pH was adjusted to 7.2 as necessary. Activity for oxaloacetate, pyruvate, and 2-ketoisovalerate was measured at a 1 mM substrate concentration. […] Absorbance readings were taken at one minute intervals at 340 nm at 21° C. for 60 minutes using the Synergy H1 spectrophotometer (Biotek). Kinetic parameters (ka and Ks1) were determined by fitting initial velocity versus substrate concentration data to the Michaelis-Menten equation. […]

Bounds are passed on as bounds.

By Km is commonly meant the substrate concentration at which the rate is half of its maximum. Take `O=C(O)CC(=O)C(=O)O` [Oxaloacetate]: the Km in assay [1] and in assay [2] was greater than 20 mM in each case.

The values above are taken from patent publication US20220348970A1, “METHODS AND COMPOSITIONS FOR 3-HYDROXYPROPIONATE PRODUCTION” (The Regents of the University of California, priority 2017, published 2022).
